Data taken from publication PMC6133092, “Synthesis of 2-alkylthio-N-(quinazolin-2-yl)benzenesulfonamide derivatives: anticancer activity, QSAR studies, and metabolic stability” (Monatshefte Fur Chemie, 2018).

Experiments:
[1] = test system: HCT-116; assay: NCI-60 single dose screen, HCT-116; format: cell-based; conditions: Homo sapiens, Colon cancer, single concentration 10^−5 M, read-out: IGP (inhibition growth percent) HCT-116
Method: (§1) Aside from above, compounds 9–14 and 17–24 were also submitted to National Cancer Institute and evaluated for the cytotoxic effects toward 60 cell lines at a single dose of 10 μM (Table 2). […] As it was summarized in Table 2, leukemia RPMI-8226 and NSCLC A549/ATCC were most sensitive to compounds 18, 22, and 24. These derivatives in 10 μM concentration inhibited the growth of approximately 50% cells belonging to the above mention cell lines.
(§2) Cytotoxicity evaluation of compounds 9–14 and 17–24 was performed at the National Cancer Institute according to NCI-60 DTP human tumor cell line screen procedure.

[2] = test system: HOP-92; assay: NCI-60 single dose screen, HOP-92; format: cell-based; conditions: Homo sapiens, NSCLC, single concentration 10^−5 M, read-out: IGP (inhibition growth percent) HOP-92
Method: as §1, §2

[3] = test system: EKVX; assay: NCI-60 single dose screen, EKVX; format: cell-based; conditions: Homo sapiens, NSCLC, single concentration 10^−5 M, read-out: IGP (inhibition growth percent) EKVX
Method: as §1, §2

[4] = test system: HCT-116 (colon cancer); assay: MTT cell viability assay, HCT-116; format: cell-based; conditions: Homo sapiens, 72 h, mean ± SD
Method: (§3) All chemicals, if not stated otherwise, were obtained from Sigma-Aldrich (St. Louis, MO, USA). The MCF-7 and HeLa cell lines were purchased from Cell Lines Services (Eppelheim, Germany), the HCT-116 cell line was purchased from ATCC (ATCC-No: CCL-247). Cells were cultured in Dulbecco’s modified Eagle’s medium (DMEM) supplemented with 10% fetal bovine serum, 2 mM glutamine, 100 units/cm^3 penicillin, and 100 μg/cm^3 streptomycin. Cultures were maintained in a humidified atmosphere with 5% CO2 at 37 °C in an incubator (Heraceus, HeraCell).
(§4) Cell viability was determined using the MTT (3-(4,5-dimethylthiazol-2-yl)-2,5-diphenyltetrazolium bromide) assay. Cells were seeded in 96-well plates at a density of 5 × 10^3 cells/well and treated for 72 h with the examined compounds in the concentration range 1–100 μM (1, 10, 25, 50, and 100 μM). Following treatment, MTT (0.5 mg/cm^3) was added to the medium and cells were further incubated for 2 h at 37 °C. Cells were lysed with DMSO and the absorbance of the formazan solution was measured at 550 nm with a plate reader (Victor, 1420 multilabel counter). […] The experiment was performed in triplicate. Values are expressed as the mean ± SD of at least three independent experiments.

[5] = test system: UACC-62; assay: NCI-60 single dose screen, UACC-62; format: cell-based; conditions: Homo sapiens, Melanoma, single concentration 10^−5 M, read-out: IGP (inhibition growth percent) UACC-62
Method: as §1, §2

[6] = test system: NCI-H522; assay: NCI-60 single dose screen, NCI-H522; format: cell-based; conditions: Homo sapiens, NSCLC, single concentration 10^−5 M, read-out: IGP (inhibition growth percent) NCI-H522
Method: as §1, §2

[7] = test system: HeLa (cervical cancer); assay: MTT cell viability assay, HeLa; format: cell-based; conditions: Homo sapiens
Method: as §3, §4

[8] = test system: UO-31; assay: NCI-60 single dose screen, UO-31; format: cell-based; conditions: Homo sapiens, Renal cancer, single concentration 10^−5 M, read-out: IGP (inhibition growth percent) UO-31
Method: as §1, §2

[9] = test system: SR; assay: NCI-60 single dose screen, SR; format: cell-based; conditions: Homo sapiens, Leukemia, single concentration 10^−5 M, read-out: IGP (inhibition growth percent) SR
Method: as §1, §2

[10] = test system: HaCaT; assay: Cytotoxic effect against non-carcinogenic cell line HaCaT; format: cell-based; conditions: for IC50: Homo sapiens, HaCaT, non-carcinogenic cell line, mean ± SD; for activity against HCT-116 fold higher compared with HaCaT: selectivity HCT-116 vs HaCaT; for inhibition of growth of HaCaT cells fold weaker than HeLa cells: selectivity HeLa vs HaCaT
Method: For the compounds with the strongest cytotoxicity (12, 18, 22, and 24), an investigation of cytotoxic effect against non-carcinogenic cell line HaCaT was done. […] The activity against HCT-116 was 1.7-, 1.6-, 1.5-, and 1.4-fold higher when compared with HaCaT cell line, for compounds 12, 18, 22, and 24, respectively.
as §4

[11] = Metabolic stability in human liver microsomes with NADPH; format: in vitro ADME; conditions: pooled human liver microsomes, pH 7.4, human liver microsomes 0.5 mg/cm^3, NADPH 1 mM, 10 μM compound, 37 °C, read-out: in vitro metabolic half-life t1/2
Method: Selected derivatives were submitted to metabolic stability study to assess their ability to remain unchanged in the presence of human metabolic enzymes. Human liver microsomes were used as they are a rich source of all common CYP isoenzymes. In vitro incubations were performed in the presence of NADPH as a cofactor and the disappearance of a derivative was followed using LC–MS technique. The in vitro metabolic half-life values are gathered in Fig. 3.
Stock solutions of studied compounds were prepared at concentration of 10 mM in DMSO. […] Incubation mixture contained 10 μM of a studied derivative, 1 mM of NADPH (Sigma-Aldrich) and 0.5 mg/cm^3 of pooled human liver microsomes (HLM, Sigma-Aldrich) in potassium phosphate buffer (0.1 M, pH 7.4). Incubation was carried out in thermostat at 37 °C and started by addition of studied compound. 50 mm^3 samples were taken at starting point and after 5, 15, 30, 45, and 60 min. Enzymatic reaction was terminated by the addition of the equal volume of ice-cold acetonitrile. Incubations were performed in triplicates, the average t1/2 and standard deviation was calculated. Control incubations were performed without NADPH to assess chemical instability. After collection, samples were immediately centrifuged (10 min, 10,000 rpm) and resulted supernatant was directly analyzed or kept in − 80 °C until LC–MS analysis. Natural logarithm of a compound over IS peak area ratio was plotted versus incubation time. Metabolic half-time (t1/2) was calculated from the slope of the linear regression.
LC–MS analysis was performed on an Agilent 1260 system coupled to SingleQuad 6120 mass spectrometer (Agilent Technologies, Santa Clara, CA, USA). Poroshell EC-C18 (2.1 mm × 150 mm, 2.7 μm, Agilent Technologies, Santa Clara, CA, USA) was used in reversed-phase mode with gradient elution starting with 5% of phase A (10 mM ammonium formate in water) and 95% of phase B (10 mM ammonium formate in acetonitrile–water mixture, 95:5 v/v). […] Total analysis time was 15 min at 40 °C, flow rate was 1 cm^3/min and the injection volume was 5 mm^3. The mass spectrometer was equipped with electrospray ion source and operated in positive ionization. Mass analyzer was set individually to each compound to detect [M+H]^+ protonated molecule. MSD parameters of the ESI source were as follows: nebulizer pressure 35 psig (N2), drying gas […] (N2), drying gas temperature 300 °C, capillary voltage 3 kV, fragmentor voltage 150 V.

[12] = test system: A549/ATCC; assay: NCI-60 single dose screen, A549/ATCC; format: cell-based; conditions: Homo sapiens, A549, NSCLC; single concentration 10^−5 M; read-out: IGP (inhibition growth percent) A549/ATCC
Method: as §1, §2

[13] = Table 4, repeats Table 1 values without SD and unit

Row | SMILES | inhibition at 10 µM [1] | inhibition at 10 µM [2] | inhibition at 10 µM [3] | IC50 [4] | inhibition at 10 µM [5] | inhibition at 10 µM [6] | IC50 ([7]; MTT, 72 h, mean ± SD) | IC50 [7, 13] | inhibition at 10 µM [8] | inhibition at 10 µM [9] | IC50 [10] | activity against HCT-116 fold higher compared with HaCaT [10] | inhibition of growth of HaCaT cells fold weaker than HeLa cells [10] | half-life at 10 μM [11] | inhibition at 10 µM [12]
1 | O=C(Nc1ccccc1)c1cc(S(=O)(=O)Nc2nc(-c3ccccc3)c3ccccc3n2)c(SCc2ccccc2)cc1Cl [Compound 18, 2-Benzylthio-4-chloro-5-phenylcarbamoyl-N-(4-phenylquinazolin-2-yl)benzenesulfonamide] | 31% | 26% | 35% | 42 ± 1 µM | 39% | 25% | 46 ± 2 µM | 46 µM | 3% | 28% | 68 ± 2 µM | 1.6 fold | 1.5 fold | 11.2 min | ~50%
2 | Cc1ccc(NC(=O)c2cc(S(=O)(=O)Nc3nc(-c4ccccc4)c4ccccc4n3)c(SCc3ccccc3)cc2Cl)cc1 [Compound 24, 2-Benzylthio-4-chloro-5-(4-methylphenylcarbamoyl)-N-(4-phenylquinazolin-2-yl)benzenesulfonamide] | 44% | 26% | 45% | 41 ± 1 µM | 28% | 28% | 44 ± 3 µM | – | 25% | 23% | 58 ± 1 µM | 1.4 fold | 1.3 fold | 42.3 min | ~50%
3 | O=C(Nc1ccc(Cl)cc1)c1cc(S(=O)(=O)Nc2nc(-c3ccccc3)c3ccccc3n2)c(SCc2ccccc2)cc1Cl [Compound 22, 2-Benzylthio-4-chloro-5-(4-chlorophenylcarbamoyl)-N-(4-phenylquinazolin-2-yl)benzenesulfonamide] | 39% | 34% | 28% | 39 ± 1 µM | 40% | 35% | 42 ± 0.5 µM | 42 µM | 35% | 40% | 59 ± 1 µM | 1.5 fold | 1.4 fold | 67.2 min | ~50%
